In paper PMC10669129 (2023):

Columns and labels:
[1] = system: 5-HT-binding DNA aptamer (44-mer) (DNA, aptamer) CGACTGGTAGGCAGATAGGGGAAGCTGATTCGATGCGTGGGTCG; experiment: square wave voltammetry; settings: Mg2+ 2 mM, 1X PBS; apparent; 30 min exposure in 1X PBS; read in ferri/ferrocyanide 5 mM, pH 7.1; Hill fit
[2] = system: 5-HT-binding DNA aptamer (44-mer) (DNA, aptamer) CGACTGGTAGGCAGATAGGGGAAGCTGATTCGATGCGTGGGTCG; experiment: electrochemical impedance spectroscopy; settings: Mg2+ 2 mM, 1X PBS; apparent; 30 min exposure in 1X PBS; read in ferri/ferrocyanide 5 mM, pH 7.1; Hill fit
[3] = system: 5-HT-binding DNA aptamer (44-mer) (DNA, aptamer) CGACTGGTAGGCAGATAGGGGAAGCTGATTCGATGCGTGGGTCG; experiment: EIS and SWV; single-frequency EIS; settings: Mg2+ 2 mM, 1X PBS; selectivity test; highest concentration not given in text
[4] = system: 5-HT-binding DNA aptamer (44-mer) (DNA, aptamer) CGACTGGTAGGCAGATAGGGGAAGCTGATTCGATGCGTGGGTCG; experiment: single-frequency EIS; settings: Mg2+ 2 mM, 1X PBS; some cross-reactivity; microfluidic flow; concentration not given

Compound: NCCc1c[nH]c2ccc(O)cc12
- kd,eff [1]: 306.76 ± 41.54 nM
- kd,eff [2]: 343.54 ± 61.03 nM

Compound: NCCc1ccc(O)c(O)c1
- binding [3]: no

Compound: NC[C@H](O)c1ccc(O)c(O)c1
- binding [3]: no

Compound: N[C@@H](Cc1c[nH]c2ccc(O)cc12)C(=O)O
- binding [4]: weak

Compound: N[C@@H](Cc1c[nH]c2ccccc12)C(=O)O
- binding [4]: weak

Compound: O=C(O)Cc1c[nH]c2ccc(O)cc12
- binding [4]: weak
